Values of other authors in patent US20080213381A1, “Oral Drug Delivery System” (PHARMACEUTICAL INDUSTRIES LIMITED, priority 2005, published 2008).

[1] = oral, conventional immediate release dosage form of venlafaxine hydrochloride

time after oral administration at which plasma venlafaxine level is sub-therapeutic (conventional immediate release dosage form): around 12 hours
time at which peak plasma concentration of the active metabolite is achieved [1]: 4 h
time at which peak plasma concentration of venlafaxine is achieved [1]: 2 h
Structure (SMILES): COc1ccc(C(CN(C)C)C2(O)CCCCC2)cc1 (stereo not drawn) [venlafaxine]
